Measurements from article PMC7883726 (Acta Pharmaceutica Sinica. B, 2021).
Like-named read-outs stand apart in the source and are kept apart here.

Molecular target: SARS-CoV-2 RdRp (Severe acute respiratory syndrome coronavirus 2, UniProt P0DTD1)
Assay: biochemical
Type: binding
Details: for koff: read-out: kdis
[1] = KD, BLI, 1:1 binding model, compounds 3.125–100 μmol/L
[2] = BLI, 1:1 binding model, compounds 3.125–100 μmol/L

Row | SMILES | kon [M⁻¹ s⁻¹] | Kd [1] [µM] | koff [s⁻¹] | Kd [µM] | kdis [s⁻¹] | also measured
1 | C[C@@H]1O[C@@H](O[C@@H]2[C@@H](O)[C@H](OCCc3ccc(O)c(O)c3)O[C@H](CO)[C@H]2OC(=O)/C=C/c2ccc(O)c(O)c2)[C@H](O)[C@H](O)[C@H]1O [RAI-S-11, Verbascoside] | 108 | 0.84 ± 0.85 | 9.05e-05 | – | – | –
2 | COc1cc(C(=O)NS(=O)(=O)c2ccccc2C)ccc1Cc1cn(C)c2ccc(NC(=O)OC3CCCC3)cc12 [RAI-S-19, Zafirlukast] | 8.43 | > 1000 | 4.99 | – | – | –
3 | O=C(Nc1nc(-c2ccc(O)c(O)c2)c(-c2ccccc2)s1)c1ccc(O)c(O)c1 [RAI-S-34, COH29] | 8.10 | – | – | > 1000 | 0.189 | –
4 | CC1(C)CC[C@]2(C(=O)O)CC[C@]3(C)C(=CC[C@@H]4[C@@]5(C)CCC(=O)C(C)(C)[C@@H]5CC[C@]43C)[C@@H]2C1 [RAI-S-35, Oleanonic Acid] | 98.4 | 171 ± 35.9 | 0.0168 | – | – | –
5 | C[C@@H]1O[C@@H](OC[C@H]2O[C@@H](OCCc3ccc(O)c(O)c3)[C@H](O)[C@@H](O)[C@@H]2OC(=O)/C=C/c2ccc(O)c(O)c2)[C@H](O)[C@H](O)[C@H]1O [RAI-S-36, Forsythoside A] | – | – | – | – | – | Kd [2]: < 50 µM; Kd (BLI, 1:1 binding model, compounds 3.125–100 μmol/L, listed as 36): 1.16 ± 0.44 µM; kon (BLI, association rate constant): 137 M⁻¹ s⁻¹; kdis (BLI, dissociation rate constant): 0.000159 s⁻¹
6 | O=C(O[C@@H]1O[C@@H]2COC(=O)c3cc(O)c(O)c(O)c3-c3c(cc(O)c(O)c3O)C(=O)O[C@H]([C@H]1O)[C@@H]2O)c1cc(O)c(O)c(O)c1 [RAI-S-37, Corilagin] | 496 | 0.54 ± 0.01 | 0.000268 | – | – | –
7 | C[C@@H]1O[C@@H](OC[C@H]2O[C@@H](Oc3cc(O)c4c(=O)cc(-c5ccc(O)cc5)oc4c3)[C@H](O[C@@H]3O[C@@H](C)[C@H](O)[C@@H](O)[C@H]3O)[C@@H](O)[C@@H]2O)[C@H](O)[C@H](O)[C@H]1O [RAI-S-38, Ligustroflavone] | – | – | – | – | – | KD [2]: did not detect the binding
8 | Cc1ccc(Oc2nc3cc(-c4ccc(-c5ccccc5)cc4)c(Cl)cc3[nH]2)cc1C(=O)O [RAI-S-45, MK-3903] | 302 | – | – | 220 ± 19.4 | 0.0665 | –
9 | O=C(O)CCc1cc(C(=O)c2ccc(OC3CCCC3)cc2O)ccc1OCc1ccc2c(=O)[nH]oc2c1 [RAI-S-47, T-5224] | 200 | – | – | 38.7 ± 1.63 | 0.00774 | –
